Measured values taken from US4075189A, “Hexapeptides” (Parke, Davis & Company, priority 1976, dated 1978).
Several values for one entry are separate records, joined by “and”; a condition that tells them apart may be missing. Identical values can stand only once. No end group written: not given here.

Test system: LRF (luteinizing hormone releasing factor) induced luteinizing hormone (LH) release
Test: LRF antagonist activity in vitro, rat anterior pituitary cell cultures (Vale et al.)
Assay type: cell-based
Conditions: LRF alone
Source text: Hexapeptides of this invention were screened for LRF antagonist activity in vitro using rat anterior pituitary cell cultures as described by Vale et. al. [Endocrinology, 91, 562 (1972)]. The inhibition of LRF (luteinizing hormone releasing factor) induced luteinizing hormone (LH) release into the culture medium is the endpoint in this in vitro bioassay.

Question: How did the “LH Value” (Molar Conc. 2.5×10^-10) turn out when “LRF Control: luteinizing hormone releasing factor, also referred to as luteinizing hormone releasing hormone, LH-RH; stimulus in the bioassay (QHWSYGLRPG; ends and bridges not checked; UniProt P01148 24-33, looked up)” was run?
Answer: 38.98 ng/mL

Question: And the “LH Value” (Molar Conc. 3.5×10^-10)?
Answer: 35.60 ng/mL and 49.99 ng/mL and 41.70 ng/mL and 64.13 ng/mL

Question: What about the “LH Value” (Molar Conc. 5×10^-10) of the same substance?
Answer: 63.61 ng/mL
